Source: patent US20250136606A1, “MODULATORS OF TRPML, THEIR COMPOSITIONS AND METHODS OF USE” (Caraway Therapeutics, Inc., priority 2021, published 2025)

How the values were obtained:
Type in all cases: cell-based
Conditions in all cases: fluorescent calcium assay
TRPML1 = TRPML1 (Homo sapiens, UniProt Q9GZU1); experiment: Fluorescent TRPML1 assay (Fluo4-AM calcium fluorescence in doxycycline-induced HEK-293 Trex cells)
Procedure, shortened: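 HEK-293 Trex cells stably carrying human TRPML1 (surface-trafficking mutant) were induced overnight with 0.5 ug/mL doxycycline, loaded with 1 micromolar Fluo4-AM, and suspended in Ringer's with 10 mM calcium. Compounds at 20 micromolar to 6 nanomolar final, half-log steps, triplicate; fluorescence 480/540 nm gave percent activity versus controls and EC50 by non-linear regression.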

TRPML2 = target: T1, TRPML2 (Homo sapiens, UniProt Q8IZK6); experiment: Fluorescent TRPML2 assay (performed as for TRPML1, substituting the TRPML2 subtype)
T1 construct: expressed in transfected cells
T1 sequence (Q8IZK6 1-566): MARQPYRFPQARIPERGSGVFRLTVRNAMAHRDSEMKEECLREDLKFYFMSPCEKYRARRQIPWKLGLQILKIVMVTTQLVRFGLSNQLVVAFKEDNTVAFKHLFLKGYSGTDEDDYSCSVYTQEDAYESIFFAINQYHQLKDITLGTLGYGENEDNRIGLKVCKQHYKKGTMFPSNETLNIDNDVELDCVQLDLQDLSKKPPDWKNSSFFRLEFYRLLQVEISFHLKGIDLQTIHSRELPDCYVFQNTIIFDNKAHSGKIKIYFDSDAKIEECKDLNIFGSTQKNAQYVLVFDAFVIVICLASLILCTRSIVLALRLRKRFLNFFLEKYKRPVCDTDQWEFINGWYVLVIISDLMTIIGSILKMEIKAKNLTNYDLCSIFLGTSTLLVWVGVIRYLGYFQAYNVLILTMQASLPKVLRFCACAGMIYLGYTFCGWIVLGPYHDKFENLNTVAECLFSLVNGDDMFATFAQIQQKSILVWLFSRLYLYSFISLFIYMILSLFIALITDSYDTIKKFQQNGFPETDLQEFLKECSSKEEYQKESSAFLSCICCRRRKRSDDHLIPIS
Procedure, shortened: (§1)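 Calcium-influx readout: Fluo4 fluorescence at 480/540 nm, normalised to positive and negative controls per plate, EC50 fitted by non-linear regression. Cells were HEK-293 Trex stable lines, channel expression induced overnight with 0.5 ug/mL doxycycline; tested at 20 micromolar down to 6 nanomolar final, half-log steps, triplicate.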

TRPML3 = target: T2, TRPML3 (Homo sapiens, UniProt Q8TDD5); experiment: Fluorescent TRPML3 assay (performed as for TRPML1, substituting the TRPML3 subtype)
T2 construct: expressed in transfected cells
T2 sequence (Q8TDD5 1-553): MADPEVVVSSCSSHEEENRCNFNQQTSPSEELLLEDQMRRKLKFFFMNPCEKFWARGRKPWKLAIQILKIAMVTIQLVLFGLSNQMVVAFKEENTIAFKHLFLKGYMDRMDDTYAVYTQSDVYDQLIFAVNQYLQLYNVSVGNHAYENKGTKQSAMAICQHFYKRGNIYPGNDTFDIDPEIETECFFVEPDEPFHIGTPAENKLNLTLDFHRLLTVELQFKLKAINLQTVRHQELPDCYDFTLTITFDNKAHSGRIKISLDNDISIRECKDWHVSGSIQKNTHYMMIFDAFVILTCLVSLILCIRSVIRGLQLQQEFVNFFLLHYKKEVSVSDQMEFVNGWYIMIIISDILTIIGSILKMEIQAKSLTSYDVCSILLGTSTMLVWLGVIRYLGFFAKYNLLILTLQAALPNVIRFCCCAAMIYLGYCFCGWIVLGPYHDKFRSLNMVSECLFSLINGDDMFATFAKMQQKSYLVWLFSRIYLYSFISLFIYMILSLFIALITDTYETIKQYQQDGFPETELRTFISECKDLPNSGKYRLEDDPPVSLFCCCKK
Procedure, shortened: as §1

TRPML1, sequence (Q9GZU1 whole entry L15A/L16A/L577A/L578A, form open): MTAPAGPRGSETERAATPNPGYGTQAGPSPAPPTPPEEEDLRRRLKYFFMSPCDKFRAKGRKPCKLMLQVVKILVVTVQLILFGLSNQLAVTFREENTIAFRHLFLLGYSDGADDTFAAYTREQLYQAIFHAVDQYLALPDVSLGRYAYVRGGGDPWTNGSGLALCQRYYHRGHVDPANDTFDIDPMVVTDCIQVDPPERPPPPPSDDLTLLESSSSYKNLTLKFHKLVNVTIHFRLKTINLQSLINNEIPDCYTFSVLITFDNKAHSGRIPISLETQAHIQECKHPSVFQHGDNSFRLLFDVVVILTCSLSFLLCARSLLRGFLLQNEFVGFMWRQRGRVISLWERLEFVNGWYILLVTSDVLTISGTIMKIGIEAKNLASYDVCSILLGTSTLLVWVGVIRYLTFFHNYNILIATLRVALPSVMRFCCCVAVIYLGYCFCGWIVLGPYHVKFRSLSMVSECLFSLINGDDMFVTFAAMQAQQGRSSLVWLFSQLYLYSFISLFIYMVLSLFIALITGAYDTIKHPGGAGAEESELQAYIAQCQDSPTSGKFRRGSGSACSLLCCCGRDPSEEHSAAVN

EC50 (TRPML1) [nM]	EC50 (TRPML2) [nM]	EC50 (TRPML3) [nM]	SMILES
100 to 500	500 to 2000	< 100	Cc1cc(C#N)cc(-n2cc(C3CC3)c3c(N4CCN(C(=O)OC(C)(C)C)C[C@@H]4C)ncnc32)n1 [Compound 403, tert-butyl (S)-4-(7-(4-cyano-6-methylpyridin-2-yl)-5-cyclopropyl-7H-pyrrolo[2,3-d]pyrimidin-4-yl)-3-methylpiperazine-1-carboxylate]
< 100	< 100	< 100	Cc1cc(C#N)cc(-n2cc(-c3ccccc3F)c3c(N4CCN(C(=O)OC(C)(C)C)C[C@@H]4C)ncnc32)n1 [Compound 404, tert-butyl (S)-4-(7-(4-cyano-6-methylpyridin-2-yl)-5-(2-fluorophenyl)-7H-pyrrolo[2,3-d]pyrimidin-4-yl)-3-methylpiperazine-1-carboxylate]
< 100	< 100	< 100	C[C@H]1CN(C(=O)OC(C)(C)C)CCN1c1ncnc2c1c(N1CCC(C)(C)C1)cn2-c1cc(C#N)ccn1 [Compound 405, tert-butyl (S)-4-(7-(4-cyanopyridin-2-yl)-5-(3,3-dimethylpyrrolidin-1-yl)-7H-pyrrolo[2,3-d]pyrimidin-4-yl)-3-methylpiperazine-1-carboxylate]
100 to 500	500 to 2000	500 to 2000	C[C@H]1CN(C(=O)OC(C)(C)C)CCN1c1ncnc2c1c(N1CCCC1)cn2[C@@H]1C[C@@H]2CC[C@H]1C2 [Compound 406, tert-butyl-(S)-4-(7-((1S,2R,4R)-bicyclo[2.2.1]heptan-2-yl)-5-(pyrrolidin-1-yl)-7H-pyrrolo[2,3-d]pyrimidin-4-yl)-3-methylpiperazine-1-carboxylate]
< 100	< 100	< 100	C[C@H]1CN(C(=O)OC(C)(C)C)CCN1c1ncnc2c1c(N1CCC1)cn2-c1cc(C#N)ccn1 [Compound 407, tert-butyl (S)-4-(5-(azetidin-1-yl)-7-(4-cyanopyridin-2-yl)-7H-pyrrolo[2,3-d]pyrimidin-4-yl)-3-methylpiperazine-1-carboxylate]
500 to 2000	> 2000	500 to 2000	C[C@H]1CN(C(=O)OC(C)(C)C)CCN1c1ncnc2c1c(C1CC1)cn2C1CCCN(C#N)C1 (stereo partly drawn) [Compound 410, tert-butyl (3S)-4-(7-(1-cyanopiperidin-3-yl)-5-cyclopropyl-7H-pyrrolo[2,3-d]pyrimidin-4-yl)-3-methylpiperazine-1-carboxylate]
< 100	< 100	< 100	C[C@H]1CN(C(=O)OC(C)(C)C)CCN1c1ncnc2c1c(C1(C)CC1)cn2-c1cc(C#N)ccn1 [Compound 411, tert-butyl (S)-4-(7-(4-cyanopyridin-2-yl)-5-(1-methylcyclopropyl)-7H-pyrrolo[2,3-d]pyrimidin-4-yl)-3-methylpiperazine-1-carboxylate]
100 to 500	100 to 500	< 100	CC(C)(C)OC(=O)N1CCN(c2ncnc3c2c(-c2ccccc2F)cn3-c2cc(C#N)ccn2)C2CC21 (stereo not drawn) [Compound 412]
100 to 500	100 to 500	< 100	C[C@H]1CN(C(=O)OC(C)(C)C)CCN1c1ncnc2c1c(C1CC1)cn2-c1cc(C#N)n(C)n1 [Compound 413, tert-butyl (S)-4-(7-(5-cyano-1-methyl-1H-pyrazol-3-yl)-5-cyclopropyl-7H-pyrrolo[2,3-d]pyrimidin-4-yl)-3-methylpiperazine-1-carboxylate]
500 to 2000	> 2000	500 to 2000	C[C@H]1CN(C(=O)OC(C)(C)C)CCN1c1ncnc2c1c(C1CC1)cn2C1CC(C#N)C1 (stereo partly drawn) [Compound 414, tert-butyl (S)-4-(7-(3-cyanocyclobutyl)-5-cyclopropyl-7H-pyrrolo[2,3-d]pyrimidin-4-yl)-3-methylpiperazine-1-carboxylate]
< 100	100 to 500	< 100	C[C@H]1CN(C(=O)OC(C)(C)C)CCN1c1ncnc2c1c(N(C)C)cn2-c1cccc(Cl)c1 [Compound 415]
< 100	< 100	< 100	C[C@@H]1CN(c2ncnc3c2c(N2CCCC2)cn3-c2cc(C#N)ccn2)CCN1C(=O)OC(C)(C)C [Compound 416, tert-butyl (R)-4-(7-(4-cyanopyridin-2-yl)-5-(pyrrolidin-1-yl)-7H-pyrrolo[2,3-d]pyrimidin-4-yl)-2-methylpiperazine-1-carboxylate]
< 100	100 to 500	< 100	C[C@@H]1CN(c2cn(-c3cc(C#N)ccn3)c3ncnc(N4CCN(C(=O)OC(C)(C)C)C[C@@H]4C)c23)CCO1 [Compound 417, tert-butyl (S)-4-(7-(4-cyanopyridin-2-yl)-5-((R)-2-methylmorpholino)-7H-pyrrolo[2,3-d]pyrimidin-4-yl)-3-methylpiperazine-1-carboxylate]
< 100	100 to 500	< 100	C[C@@H]1CN(c2nccc3c2c(C2CC2)cn3-c2cc(F)cc(F)c2)CCN1C(=O)OC(C)(C)C [Compound 418, tert-butyl (R)-4-(3-cyclopropyl-1-(3,5-difluorophenyl)-1H-pyrrolo[3,2-c]pyridin-4-yl)-2-methylpiperazine-1-carboxylate]
< 100	100 to 500	< 100	C[C@@H]1COCCN1c1cn(-c2cc(C#N)ccn2)c2ncnc(N3CCN(C(=O)OC(C)(C)C)C[C@@H]3C)c12 [Compound 419, tert-butyl (S)-4-(7-(4-cyanopyridin-2-yl)-5-((R)-3-methylmorpholino)-7H-pyrrolo[2,3-d]pyrimidin-4-yl)-3-methylpiperazine-1-carboxylate]
< 100	< 100	< 100	CC(C)(C)OC(=O)N1CCN(c2ncnc3c2c(-c2ccccc2F)cn3-c2cc(C#N)ccn2)C(C)(C)C1 [Compound 420, tert-butyl 4-(7-(4-cyanopyridin-2-yl)-5-(2-fluorophenyl)-7H-pyrrolo[2,3-d]pyrimidin-4-yl)-3,3-dimethylpiperazine-1-carboxylate]
100 to 500	< 100	< 100	CC(C)(C)OC(=O)N1CCN(c2ncnc3c2c(C2CC2)cn3-c2cc(C#N)ccn2)C(C)(C)C1 [Compound 421, tert-butyl 4-(7-(4-cyanopyridin-2-yl)-5-cyclopropyl-7H-pyrrolo[2,3-d]pyrimidin-4-yl)-3,3-dimethylpiperazine-1-carboxylate]
< 100	100 to 500	< 100	CCN(CC)c1cn(-c2cc(C#N)ccn2)c2ncnc(N3CCN(C(=O)OC(C)(C)C(F)(F)F)C[C@@H]3C)c12 [Compound 422, 1,1,1-trifluoro-2-methylpropan-2-yl (S)-4-(7-(4-cyanopyridin-2-yl)-5-(diethylamino)-7H-pyrrolo[2,3-d]pyrimidin-4-yl)-3-methylpiperazine-1-carboxylate]
< 100	< 100	< 100	CCCN(CC)c1cn(-c2cc(C#N)ccn2)c2ncnc(N3CCN(C(=O)OC(C)(C)C)C[C@@H]3C)c12 [Compound 423, tert-butyl (S)-4-(7-(4-cyanopyridin-2-yl)-5-(ethyl(propyl)amino)-7H-pyrrolo[2,3-d]pyrimidin-4-yl)-3-methylpiperazine-1-carboxylate]
